Experimental data from ChEMBL document CHEMBL6134873, “Identification of Novel Cyclobutane-Based Derivatives as Potent Acetyl-CoA Carboxylase Allosteric Inhibitors for Nonalcoholic Steatohepatitis Drug Discovery” (J Med Chem, 2025).

Columns and labels:
[1] = Cmax in Sprague-Dawley rat at 3 mg/kg, po measured for 0.25 to 24 hrs by LC-MS/MS analysis; type: ADME, organism-based; details: in vivo, time 0.25-24 hrs
[2] = AUC (0 to t) in Sprague-Dawley rat at 3 mg/kg, po measured for 0.25 to 24 hrs by LC-MS/MS analysis; type: ADME, organism-based; details: in vivo, time 0.25-24 hrs
[3] = MRT (0 to t) in Sprague-Dawley rat at 3 mg/kg, po measured for 0.25 to 24 hrs by LC-MS/MS analysis; type: ADME, organism-based; details: in vivo, time 0.25-24 hrs
[4] = Half life in Sprague-Dawley rat at 1 mg/kg, iv measured for 0.25 to 24 hrs by LC-MS/MS analysis; type: ADME, organism-based; details: in vivo, time 0.25-24 hrs
[5] = AUC (0 to t) in Sprague-Dawley rat at 1 mg/kg, iv measured for 0.25 to 24 hrs by LC-MS/MS analysis; type: ADME, organism-based; details: in vivo, time 0.25-24 hrs
[6] = Clearance in Sprague-Dawley rat at 1 mg/kg, iv measured for 0.25 to 24 hrs by LC-MS/MS analysis; type: ADME, organism-based; details: in vivo, time 0.25-24 hrs
[7] = Volume of distribution in Sprague-Dawley rat at 1 mg/kg, iv measured for 0.25 to 24 hrs by LC-MS/MS analysis; type: ADME, organism-based; details: in vivo, time 0.25-24 hrs
[8] = Half life in Sprague-Dawley rat at 3 mg/kg, po measured for 0.25 to 24 hrs by LC-MS/MS analysis; type: ADME, organism-based; details: in vivo, time 0.25-24 hrs
[9] = Biodistribution in liver of 12 hr-fasted male wild-type Sprague-Dawley rat at 3 mg/kg, po measured after 4 hrs by LC-MS/MS analysis; type: ADME, organism-based; details: in vivo
[10] = Biodistribution in 12 hr-fasted male wild-type Sprague-Dawley rat assessed as increase in ratio of drug concentration in liver/plasma at 3 mg/kg, po measured for 0.25 to 4 hrs by LC-MS/MS analysis; type: ADME, organism-based; details: in vivo, time 0.25-4 hrs
[11] = Biodistribution in 12 hr-fasted male wild-type Sprague-Dawley rat assessed as increase in ratio of drug concentration in kidney/plasma at 3 mg/kg, po measured after 4 hrs by LC-MS/MS analysis; type: ADME, organism-based; details: in vivo
[12] = Inhibition of fatty acid synthesis in human HepG2 cells preincubated for 1.5 hrs followed by [14C] acetate addition measured after 1.5 hrs by liquid scintillation counter analysis; type: functional, cell-based
[13] = Suppression of Col1A1 mRNA expression in TGF-beta1-treated human LX2 cells incubated for 24 hrs by qPCR analysis; type: functional, cell-based; details: LX-2, 24 h
[14] = Toxicity in Sprague-Dawley rat model of DEN-induced liver fibrosis assessed as animal mortality at 3 to 10 mg/kg, po qd treated for 4 weeks; type: organism-based; details: in vivo, 672 h, dose 3-10 mg/kg
[15] = Toxicity in Sprague-Dawley rat model of DEN-induced liver fibrosis assessed as body weight loss at 3 to 10 mg/kg, po qd treated for 4 weeks; type: organism-based; details: in vivo, 672 h, dose 3-10 mg/kg
[16] = Toxicity in Sprague-Dawley rat model of DEN-induced liver fibrosis assessed as drug tolerance at 3 to 10 mg/kg, po qd treated for 4 weeks; type: organism-based; details: in vivo, 672 h, dose 3-10 mg/kg
[17] = Protein binding in human plasma; type: ADME, cell-free; details: read-out: PPB (converted)
[18] = Protein binding in mouse plasma; type: ADME, cell-free; details: read-out: PPB (converted)
[19] = Protein binding in rat plasma; type: ADME, cell-free; details: read-out: PPB (converted)
[20] = Protein binding in dog plasma; type: ADME, cell-free, Canis lupus familiaris; details: read-out: PPB (converted)
[21] = Intrinsic clearance in human liver microsomes; type: ADME, Microsome; details: read-out: CLH
[22] = Intrinsic clearance in mouse liver microsomes; type: ADME, Microsome; details: read-out: CLH
[23] = Intrinsic clearance in dog liver microsomes; type: ADME, Canis lupus familiaris, Microsome; details: read-out: CLH
[24] = Intrinsic clearance in monkey liver microsomes; type: ADME, Macaca mulatta, Microsome; details: rhesus monkey, read-out: CLH
Cytochrome P450 2B6 = biological target: T1, Cytochrome P450 2B6 (Homo sapiens, UniProt P20813); assay: Inhibition of CYP2B6 (unknown origin); type: ADME
T1 sequence (P20813 whole entry): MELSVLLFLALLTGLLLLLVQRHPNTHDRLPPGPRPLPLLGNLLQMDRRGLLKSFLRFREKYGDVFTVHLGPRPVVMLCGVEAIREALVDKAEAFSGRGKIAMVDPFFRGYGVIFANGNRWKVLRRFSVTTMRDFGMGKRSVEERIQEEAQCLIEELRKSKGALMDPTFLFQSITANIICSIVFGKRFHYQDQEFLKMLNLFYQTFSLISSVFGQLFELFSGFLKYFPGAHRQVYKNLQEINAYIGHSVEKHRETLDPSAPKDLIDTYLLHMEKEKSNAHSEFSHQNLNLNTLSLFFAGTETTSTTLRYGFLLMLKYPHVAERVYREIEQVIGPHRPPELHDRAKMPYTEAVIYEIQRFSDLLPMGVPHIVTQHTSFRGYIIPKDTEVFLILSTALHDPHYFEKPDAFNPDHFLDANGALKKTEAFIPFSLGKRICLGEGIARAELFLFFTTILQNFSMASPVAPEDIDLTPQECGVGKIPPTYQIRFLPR

Cytochrome P450 2C9 = Cytochrome P450 2C9 (Homo sapiens, UniProt P11712); assay: Inhibition of CYP2C9 (unknown origin); type: ADME
Cytochrome P450 2C19 = Cytochrome P450 2C19 (Homo sapiens, UniProt P33261); assay: Inhibition of CYP2C19 (unknown origin); type: ADME
Cytochrome P450 2D6 = Cytochrome P450 2D6 (Homo sapiens, UniProt P10635); assay: Inhibition of CYP2D6 (unknown origin); type: ADME
Cytochrome P450 3A4 [25] = biological target: T2, Cytochrome P450 3A4 (Homo sapiens, UniProt P08684); assay: Inhibition of CYP3A4 (unknown origin) using midazolam as substrate; type: ADME
Cytochrome P450 3A4 [26] = biological target: T2, Cytochrome P450 3A4; assay: Inhibition of CYP3A4 (unknown origin) using testosterone as substrate; type: ADME
[27] = Mutagenicity in Salmonella typhimurium by mini-Ames test; type: toxicity; details: salmonella enterica subsp. enterica serovar typhimurium
[28] = Stability of compound assessed as (1S,3s)-3-(1-((R)-2-(2-hydroxyphenyl)-2-((tetrahydro-2H-pyran-4-yl)oxy)ethyl)-5-methyl-6-(oxazol-2-yl)-2,4-dioxo-1,4-dihydrothieno[2,3-d]pyrimidin-3(2H)-yl)-1-methylcyclobutane-1-carboxylic acid metabolite formation by measuring retention time; type: ADME
[29] = Stability of compound assessed as remaining parent compound by measuring retention time; type: physicochemical
[30] = Stability of compound assessed as compound isomerization by measuring retention time; type: physicochemical
Acetyl-CoA carboxylase 1 = Acetyl-CoA carboxylase 1 (Homo sapiens, UniProt Q13085)
Description: Inhibition of recombinant human ACC1 using acetyl-Co A as substrate incubated for 60 mins in presence of ATP by ADP-Glo assay

Acetyl-CoA carboxylase 2 = Acetyl-CoA carboxylase 2 (Homo sapiens, UniProt O00763)
Description: Inhibition of recombinant human ACC2 using acetyl-Co A as substrate incubated for 60 mins in presence of ATP by ADP-Glo assay

in vivo [31] = details: Sprague-Dawley, rat, plasma, po, 3 mg/kg
Description: Drug concentration in plasma of Sprague-Dawley rat at 3 mg/kg, po measured after 0.25 hrs by LC-MS/MS analysis

in vivo [32] = details: Sprague-Dawley, rat, plasma, po, 3 mg/kg; remark: listed apart in the source
Description: Drug concentration in plasma of Sprague-Dawley rat at 3 mg/kg, po measured after 1 hr by LC-MS/MS analysis

in vivo [33] = details: Sprague-Dawley, rat, plasma, po, 3 mg/kg; remark: listed apart in the source
Description: Drug concentration in plasma of Sprague-Dawley rat at 3 mg/kg, po measured after 4 hrs by LC-MS/MS analysis

in vivo [34] = details: Sprague-Dawley, rat, liver, po, 3 mg/kg
Description: Drug concentration in liver of Sprague-Dawley rat at 3 mg/kg, po measured after 0.25 hrs by LC-MS/MS analysis

in vivo [35] = details: Sprague-Dawley, rat, liver, po, 3 mg/kg; remark: listed apart in the source
Description: Drug concentration in liver of Sprague-Dawley rat at 3 mg/kg, po measured after 1 hr by LC-MS/MS analysis

in vivo [36] = details: Sprague-Dawley, rat, liver, po, 3 mg/kg; remark: listed apart in the source
Description: Drug concentration in liver of Sprague-Dawley rat at 3 mg/kg, po measured after 4 hrs by LC-MS/MS analysis

T2 sequence (P08684 whole entry): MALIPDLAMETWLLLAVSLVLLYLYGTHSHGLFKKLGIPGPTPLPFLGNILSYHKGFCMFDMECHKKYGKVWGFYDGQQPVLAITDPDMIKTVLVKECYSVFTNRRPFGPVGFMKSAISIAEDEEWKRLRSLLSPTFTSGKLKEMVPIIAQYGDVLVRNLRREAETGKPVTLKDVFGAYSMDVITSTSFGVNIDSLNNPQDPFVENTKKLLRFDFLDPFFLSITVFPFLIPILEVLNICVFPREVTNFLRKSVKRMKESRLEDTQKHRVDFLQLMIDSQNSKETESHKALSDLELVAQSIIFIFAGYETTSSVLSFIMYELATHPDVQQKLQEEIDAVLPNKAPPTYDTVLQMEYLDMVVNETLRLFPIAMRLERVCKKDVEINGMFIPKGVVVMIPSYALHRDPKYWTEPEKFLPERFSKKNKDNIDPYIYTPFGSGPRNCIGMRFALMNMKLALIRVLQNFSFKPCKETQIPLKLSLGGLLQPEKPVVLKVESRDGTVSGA
Chain of Cytochrome P450 2C9 (P11712 whole entry): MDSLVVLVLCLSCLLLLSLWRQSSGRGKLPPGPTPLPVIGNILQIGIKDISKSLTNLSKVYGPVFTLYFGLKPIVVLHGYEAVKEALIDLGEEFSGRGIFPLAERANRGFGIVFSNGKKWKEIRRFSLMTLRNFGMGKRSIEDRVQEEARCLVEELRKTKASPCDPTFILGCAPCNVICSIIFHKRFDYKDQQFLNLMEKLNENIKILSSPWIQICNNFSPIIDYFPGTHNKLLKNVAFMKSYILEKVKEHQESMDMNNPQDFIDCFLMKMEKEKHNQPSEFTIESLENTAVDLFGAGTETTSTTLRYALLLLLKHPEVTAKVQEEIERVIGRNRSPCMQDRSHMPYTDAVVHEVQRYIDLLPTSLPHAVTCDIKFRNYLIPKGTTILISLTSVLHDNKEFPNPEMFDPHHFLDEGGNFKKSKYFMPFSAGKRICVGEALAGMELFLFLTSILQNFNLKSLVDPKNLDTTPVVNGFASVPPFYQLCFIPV
Chain of Cytochrome P450 2C19 (P33261 whole entry): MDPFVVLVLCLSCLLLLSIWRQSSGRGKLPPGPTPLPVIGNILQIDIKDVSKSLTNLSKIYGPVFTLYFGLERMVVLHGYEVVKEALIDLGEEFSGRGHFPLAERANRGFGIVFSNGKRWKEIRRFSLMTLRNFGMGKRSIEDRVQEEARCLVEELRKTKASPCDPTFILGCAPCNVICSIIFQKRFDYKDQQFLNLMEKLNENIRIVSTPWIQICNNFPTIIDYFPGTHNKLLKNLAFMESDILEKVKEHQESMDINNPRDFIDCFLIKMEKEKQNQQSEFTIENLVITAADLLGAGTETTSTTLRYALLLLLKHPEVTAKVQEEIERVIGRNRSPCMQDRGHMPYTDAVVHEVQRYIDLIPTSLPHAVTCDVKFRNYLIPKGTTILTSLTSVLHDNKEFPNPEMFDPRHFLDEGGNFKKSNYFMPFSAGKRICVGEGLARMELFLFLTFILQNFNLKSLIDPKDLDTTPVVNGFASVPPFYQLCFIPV
Chain of Cytochrome P450 2D6 (P10635 whole entry): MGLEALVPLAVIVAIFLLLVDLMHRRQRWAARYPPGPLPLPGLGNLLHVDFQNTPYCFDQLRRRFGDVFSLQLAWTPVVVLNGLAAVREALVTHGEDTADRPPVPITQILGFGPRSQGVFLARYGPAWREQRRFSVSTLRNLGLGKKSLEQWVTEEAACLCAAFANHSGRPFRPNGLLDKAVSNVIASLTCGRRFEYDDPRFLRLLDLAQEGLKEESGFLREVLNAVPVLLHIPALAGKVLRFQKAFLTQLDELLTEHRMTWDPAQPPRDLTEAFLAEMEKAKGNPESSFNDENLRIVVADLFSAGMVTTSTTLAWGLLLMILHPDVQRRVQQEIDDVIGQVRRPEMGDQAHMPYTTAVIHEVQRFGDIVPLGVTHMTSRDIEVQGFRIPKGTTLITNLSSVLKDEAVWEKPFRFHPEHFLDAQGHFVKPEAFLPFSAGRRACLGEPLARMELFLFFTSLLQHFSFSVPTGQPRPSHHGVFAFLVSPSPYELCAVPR
Chain of Acetyl-CoA carboxylase 2 (O00763 whole entry): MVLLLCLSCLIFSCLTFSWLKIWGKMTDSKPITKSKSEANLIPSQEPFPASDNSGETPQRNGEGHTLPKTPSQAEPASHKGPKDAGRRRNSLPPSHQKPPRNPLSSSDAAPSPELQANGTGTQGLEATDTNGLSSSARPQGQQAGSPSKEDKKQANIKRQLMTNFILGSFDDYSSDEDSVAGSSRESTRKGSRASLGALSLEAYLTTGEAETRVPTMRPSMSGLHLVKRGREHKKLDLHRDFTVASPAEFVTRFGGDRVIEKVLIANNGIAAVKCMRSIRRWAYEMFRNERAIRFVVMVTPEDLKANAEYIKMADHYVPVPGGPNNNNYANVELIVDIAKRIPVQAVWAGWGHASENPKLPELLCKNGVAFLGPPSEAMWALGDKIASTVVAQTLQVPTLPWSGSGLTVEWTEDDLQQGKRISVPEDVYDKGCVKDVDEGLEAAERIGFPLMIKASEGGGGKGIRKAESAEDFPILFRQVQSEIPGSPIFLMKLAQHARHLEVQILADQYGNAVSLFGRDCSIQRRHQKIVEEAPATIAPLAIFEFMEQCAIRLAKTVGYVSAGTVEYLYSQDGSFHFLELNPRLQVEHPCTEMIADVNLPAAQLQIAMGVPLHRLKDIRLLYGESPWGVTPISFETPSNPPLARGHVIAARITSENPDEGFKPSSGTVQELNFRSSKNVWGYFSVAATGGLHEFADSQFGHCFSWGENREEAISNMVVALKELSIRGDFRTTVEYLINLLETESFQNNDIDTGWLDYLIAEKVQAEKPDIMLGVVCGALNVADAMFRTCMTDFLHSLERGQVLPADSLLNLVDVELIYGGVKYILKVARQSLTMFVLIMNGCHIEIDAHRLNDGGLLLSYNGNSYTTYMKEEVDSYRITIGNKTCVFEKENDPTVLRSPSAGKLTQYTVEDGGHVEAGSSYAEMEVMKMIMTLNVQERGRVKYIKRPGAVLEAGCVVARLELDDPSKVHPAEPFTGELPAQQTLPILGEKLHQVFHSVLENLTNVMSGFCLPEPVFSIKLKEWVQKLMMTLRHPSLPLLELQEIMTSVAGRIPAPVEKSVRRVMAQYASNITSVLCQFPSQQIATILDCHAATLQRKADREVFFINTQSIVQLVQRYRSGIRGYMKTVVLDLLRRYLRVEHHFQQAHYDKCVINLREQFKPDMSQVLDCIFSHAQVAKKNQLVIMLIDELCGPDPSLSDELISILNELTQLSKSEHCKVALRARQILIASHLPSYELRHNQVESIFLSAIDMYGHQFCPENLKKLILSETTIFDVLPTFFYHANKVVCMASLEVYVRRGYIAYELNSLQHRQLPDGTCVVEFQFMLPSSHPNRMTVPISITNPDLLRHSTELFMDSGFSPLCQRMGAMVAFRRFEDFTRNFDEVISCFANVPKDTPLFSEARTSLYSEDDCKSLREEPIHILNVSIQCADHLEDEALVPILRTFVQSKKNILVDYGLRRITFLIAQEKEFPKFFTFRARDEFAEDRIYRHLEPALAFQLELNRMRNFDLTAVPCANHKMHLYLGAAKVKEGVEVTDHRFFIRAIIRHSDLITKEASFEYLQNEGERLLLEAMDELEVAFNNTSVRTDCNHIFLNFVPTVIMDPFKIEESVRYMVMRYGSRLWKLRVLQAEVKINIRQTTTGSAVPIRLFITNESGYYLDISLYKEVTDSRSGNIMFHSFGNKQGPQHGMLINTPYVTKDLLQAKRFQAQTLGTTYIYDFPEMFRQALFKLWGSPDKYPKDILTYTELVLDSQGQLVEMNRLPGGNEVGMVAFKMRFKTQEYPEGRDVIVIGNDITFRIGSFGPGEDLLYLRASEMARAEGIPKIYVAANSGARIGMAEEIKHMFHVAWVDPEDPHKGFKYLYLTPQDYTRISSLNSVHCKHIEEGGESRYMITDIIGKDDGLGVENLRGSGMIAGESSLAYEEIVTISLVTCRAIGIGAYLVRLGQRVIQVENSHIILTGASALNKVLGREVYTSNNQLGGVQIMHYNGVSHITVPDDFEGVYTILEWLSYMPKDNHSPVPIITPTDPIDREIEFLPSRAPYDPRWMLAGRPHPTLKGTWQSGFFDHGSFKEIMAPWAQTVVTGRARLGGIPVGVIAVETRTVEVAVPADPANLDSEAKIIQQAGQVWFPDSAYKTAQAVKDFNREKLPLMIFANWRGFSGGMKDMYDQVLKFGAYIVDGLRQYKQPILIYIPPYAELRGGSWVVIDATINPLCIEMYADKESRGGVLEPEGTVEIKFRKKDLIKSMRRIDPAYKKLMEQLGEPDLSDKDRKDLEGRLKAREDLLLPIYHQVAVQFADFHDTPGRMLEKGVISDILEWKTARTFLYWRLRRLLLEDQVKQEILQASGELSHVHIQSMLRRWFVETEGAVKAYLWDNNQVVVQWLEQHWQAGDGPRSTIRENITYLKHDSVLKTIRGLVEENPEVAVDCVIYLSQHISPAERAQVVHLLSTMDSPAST

Structure (SMILES): COc1ccccc1[C@H](Cn1c(=O)n([C@H]2C[C@@](C)(C(=O)O)C2)c(=O)c2c(C)c(-c3ncco3)sc21)OC1CCOCC1
- Cmax [1]: 38 ng/mL
- AUC(0-t) [2]: 174 ng·h/mL
- MRT last [3]: 2.7 h
- half-life [4]: 0.5 h
- AUC(0-t) [5]: 263 ng·h/mL
- clearance [6]: 63.3 mL/min/kg
- Vd [7]: 2.8 L/kg
- half-life [8]: 3.3 h
- Drug uptake [9]: Active
- Drug uptake [10]: Active
- Drug uptake [11]: Not_active
- IC50 [12]: 6.9 nM
- IC50 [13]: 507 nM
- Activity [14]: Non-toxic
- Activity [15]: Non-toxic
- Activity [16]: Non-toxic
- fraction unbound [17]: 0.037
- fraction unbound [18]: 0.054
- fraction unbound [19]: 0.029
- fraction unbound [20]: 0.054
- CLint scaled [21]: < 8.6 mL/min/kg
- CLint scaled [22]: 44.4 mL/min/kg
- CLint scaled [23]: < 13.8 mL/min/kg
- CLint scaled [24]: < 13 mL/min/kg
- IC50 (Cytochrome P450 2B6): > 30000 nM
- IC50 (Cytochrome P450 2C9): > 30000 nM
- IC50 (Cytochrome P450 2C19): > 30000 nM
- IC50 (Cytochrome P450 2D6): > 30000 nM
- IC50 (Cytochrome P450 3A4 [25]): > 30000 nM
- IC50 (Cytochrome P450 3A4 [26]): > 30000 nM
- Activity [27]: Non-toxic
- Retention_time [28]: 9.36 min
- Retention_time [29]: 10.61 min
- Retention_time [30]: 11.01 min
- IC50 (Acetyl-CoA carboxylase 1): 0.73 nM
- IC50 (Acetyl-CoA carboxylase 2): 3.74 nM
- concentration at 0.25 h (in vivo [31]): 13.7 ng/mL
- concentration at 1 h (in vivo [32]): 56.8 ng/mL
- concentration at 4 h (in vivo [33]): 72.8 ng/mL
- concentration at 0.25 h (in vivo [34]): 3390 ng/mL
- concentration at 1 h (in vivo [35]): 2940 ng/mL
- concentration at 4 h (in vivo [36]): 4830 ng/mL
